Data as given in patent US12426614B2, “Lentinula edodes-derived saltiness enhancing peptide, method for preparing the same and use thereof” (Shanghai Academy of Agricultural Sciences, priority 2023, dated 2025).

Key:
sensory evaluation team = assay: Saltiness threshold analysis by triangle test method; type: in vivo; conditions: serial 1:1 dilution from 1.0 mg/mL; for saltiness threshold: NaCl as positive control
Method: The threshold analysis was conducted by triangle test method. […] A mass concentration of the penultimate solution was recorded as the salinity threshold for the synthetic peptide.

[1] = Electronic tongue saltiness measurement of peptide / NaCl solutions
Method: In order to understand the flavor characteristics of DIQPEER synthetic peptide solutions of different concentrations in NaCl solutions of different concentrations, 0.5 g/L, 1.0 g/L, 1.5 g/L, and 2.0 g/L DIQPEER synthetic peptide aqueous solutions were added into 3.5 g/L, 3.0 g/L, 2.5 g/L, and 2.0 g/L NaCl solutions, respectively, for electronic tongue measurement.
As the concentration of synthetic peptides increased, the concentration of NaCl solution decreased and the saltiness enhancing effect weakened. Without affecting the overall solution taste, DIQPEER could replace about 50% of NaCl compared to the saltiness value of 4.0 g/L NaCl solution.

**Q.** Which saltiness threshold (sensory evaluation team) does the source give for [Cl-].[Na+] [NaCl, reference compound] here?
**A.** Its saltiness threshold is 1.07 mM.

**Q.** What does the source list for DIQPEER?
**A.** saltiness intensity of peptide aqueous solutions ([1]; 0.5, 1.0, 1.5 and 2.0 g/L DIQPEER, FIG. 7): saltiness intensity increased with the increase of the concentration; salinity of the solution (synergy with NaCl) ([1]; 1.0 g/L synthetic peptide added to 3.0 g/L NaCl solution, FIG. 8): increased significantly; saltiness enhancement (increase of saltiness value) ([1]; 1.0 g/L synthetic peptide added to 3.0 g/L NaCl solution, compared with saltiness value of 4.0 g/L NaCl solution): 69.59%; share of NaCl that can be replaced ([1]; compared to the saltiness value of 4.0 g/L NaCl solution): about 50%; Threshold (sensory evaluation team; saltiness threshold): 0.282 mmol/L; saltiness threshold (sensory evaluation team): 0.282 mM
